According to ChEMBL document CHEMBL1142607, “Haterumadysins A-D, sesquiterpenes from the Okinawan marine sponge Dysidea chlorea” (2006):
Calls of active or inactive are those of the source. The rule behind the calls is not given here.

Legend:
Format in all cases: functional
Echinoidea [1] = test: (§1) Inhibition of cell division in fertilized sea urchin egg at 1 ppm
[2] = as §1; conditions: Echinoidea
Echinoidea [3] = test: Inhibition of cell division in fertilized sea urchin egg at 3 ppm

| Compound | Activity (Echinoidea [1]) | other results |
| --- | --- | --- |
| CC(=O)O[C@@H]1OC=C[C@]12CC1=C[C@](C)(OO)CC[C@H]1C2(C)C | Active |  |
| CC(=O)O[C@@H]1OC=C[C@]12Cc1cc(C)ccc1C2(C)C | Active |  |
| CC(=O)O[C@@H]1OC=C[C@]12C=C1C=C(C)CC[C@H]1C2(C)C | Active |  |
| CC(=O)O[C@@H]1OC=C[C@]12C[C@H]1C=C(C)CC[C@H]1C2(C)C [SPIRODYSIN] |  | inhibition at 1 ppm [2]: 90% |
| CC1=C[C@@H]2C[C@]3(C=COC3=O)C(C)(C)[C@@H]2CC1 |  | Activity (Echinoidea [3]): inactive |
| CC(=O)O[C@@H]1OC=C[C@]12CC1=C[C@@](C)(OO)CC[C@H]1C2(C)C | Active |  |
